Experimental data taken from patent US20260248930A1, “PEPTIDE COMPOSITIONS TARGETING GLYPICAN-3 AND USES THEREOF” (PeptiDream Inc., priority 2023, published 2026).
Blank lines part the entries; values can stand above or below the molecule they belong to. *1 amine or outer side, *2 acyl side, *3 side chain or, on linkers, in order; H or OH if unused. Where a SMILES comes first, the peptide text is derived from it. Bridges are numbered along the chain shown (N, C = ends). [ ]: non-standard residue; d: D form. The star is where a group is joined. ξ: configuration not given here. MeDapCOpipzaa = 3-(4-(carboxymethyl)piperazine-1-carboxamido)-2-(methylamino)propanoic acid, CN([C@@H](CNC(=O)N1CCN(CC(=O)[*:3])CC1)C(=O)[*:2])[*:1]; F4aao = (S)-2-amino-3-(4-(carboxymethoxy)phenyl)propanoic acid, O=C([C@H](Cc1ccc(OCC(=O)[*:3])cc1)N[*:1])[*:2]; MeHseMe = 4-methoxy-2-(methylamino)butanoic acid, COCC[C@@H](C(=O)[*:2])N(C)[*:1]; Phe(4-(1-Me-pyrazol-4-yl)) = Cn1cc(-c2ccc(C[C@H](N)C(=O)O)cc2)cn1; Biotin‑PEG12c = biotin-PEG12c group on the lysine side chain; TMe = O-methyl threonine, CO[C@H](C)[C@H](N[*:1])C(=O)[*:2]; NMeAla(isoquinolin-7-yl) = CN[C@@H](Cc1ccc2ccncc2c1)C(=O)O; 3Pal(6-Ph) = N[C@@H](Cc1ccc(-c2ccccc2)nc1)C(=O)O; Biotin = O=C1N[C@H]2[C@H](CS[C@H]2CCCCC(=O)*)N1; PEG10 = NCCOCCOCCOCCOCCOCCOCCOCCOCCOCCOCCC(=O)O; Phe(4-COOH) = N[C@@H](Cc1ccc(C(=O)O)cc1)C(=O)O; NMe2Nal = CN[C@@H](Cc1ccc2ccccc2c1)C(=O)O; AEF = NCCOc1ccc(C[C@H](N)C(=O)O)cc1; NMeI = CC[C@H](C)[C@H](NC)C(=O)O; NMeQ = CN[C@@H](CCC(N)=O)C(=O)O; NMeK = CN[C@@H](CCCCN)C(=O)O; NMeC = CN[C@@H](CS)C(=O)O; ξNMeC = CNC(CS)C(=O)O

Tests used:
[1] = biological target: Human Glypican3-Fc (Homo sapiens, UniProt P51654); assay: SPR binding to human Glypican3-Fc captured on Protein A chip, Method B-3 (5 concentrations); conditions: SPR method B-3
Method: (§1) A Protein A sensor chip (Cytiva) was inserted into a Biacore T200 (Cytiva), priming was performed three times with a running buffer: HBS-P+, pH 7.4 (Cytiva), and equilibration was carried out at a flow rate of 30 μL/min. Glypican3-Fc was allowed to react for 60 seconds at a flow rate of 10 μL/min. After capturing human Glypican3-Fc, a peptide solution prepared to 10 mM in DMSO solution was diluted with a running buffer to a final concentration of 10 μM. […] Using the above samples, peptide kinetics for Glypican3 was obtained by SPR measurement. Kinetics evaluation of Glypican3 was performed by SPR measurements at a flow rate of 10 μL/min, setting the association time to 120 seconds and the disassociation time to 600 seconds.
(§2) The obtained data by Method B-1, Method B-2, Method B-3, and Method B-4 were analyzed by follow. Single Cycle Kinetics was used as the kinetics evaluation model, and curve fitting was performed using Biacore T200 Evaluation Software Version 3.0 (Cytiva).

[2] = test system: Huh-7 cells (glypican 3 expressed on the cell surface); assay: Flow cytometry, biotinylated peptides followed by SAPE, Huh-7; format: cell-based, human; conditions: biotinylated peptide at 100 nM followed by SAPE (1:250), on ice; compared with SK-Hep1 negative control; FIG. 3
Method: (§3) Macrocyclic peptide-conjugates in this invention were tested in cells expressing glypican 3 and analyzed by flow cytometry.
(§4) HepG2 (human hepatocellular carcinoma) and SK-HEP-1 (human hepatic adenocarcinoma) cell lines were purchased from the American Type Culture Collection (ATCC; Manassas, VA). Huh-7 (human hepatoblastoma) cell line was purchased from the Japanese Collection of Research Bioresources Cell Bank (JCRB Cell Bank, Osaka, Japan). HepG2 and SK-HEP-1 were grown in EMEM (FUJIFILM Wako Pure Chemical Corporation, 055-08975) with 10% fetal bovine serum (FBS; Thermo Fisher Scientific, 10270106) and 0.1% gentamicin (NACALAI TESQUE, 11980-14). Huh-7 was grown in DMEM (Thermo Fisher Scientific, 10567014) with 10% FBS and 0.1% gentamicin.
(§5) HepG2, SK-HEP-1 and Huh-7 cells were collected from the culture dish and stained with biotinylated peptides at 100 nM followed by Streptavidin, R-Phycoerythrin Conjugate (SAPE; Thermo Fisher Scientific, S866) (1:250). Cells were washed with phosphate-buffered saline (PBS; FUJIFILM Wako Pure Chemical Corporation, 043-29791) containing 0.5% FBS after addition of peptides or SAPE. All staining procedures were performed on ice. Samples were measured using CytoFLEX S (Beckman Coulter) and CytExpert ver2.4 software. All data were analyzed using FlowJo™ (BD Bioscience). […]

[3] = test system: HepG2 cells (glypican 3 expressed on the cell surface); assay: Flow cytometry, biotinylated peptides followed by SAPE, HepG2; format: cell-based, human; conditions: biotinylated peptide at 100 nM followed by SAPE (1:250), on ice; compared with SK-Hep1 negative control; FIG. 2
Method: as §3, §4, §5

[4] = biological target: T1, human Glypican3 (Homo sapiens, UniProt P51654); assay: SPR binding to immobilized human Glypican3, Method B-1 (CM3 chip, amine coupling); conditions: SPR method B-1
T1 construct: purchased R&D systems 2119-GP
Method: Macrocyclic peptides in this invention were tested for binding to Glypican-3 protein by SPR.
A CM3 sensor chip (Cytiva) was inserted into a Biacore T200 (Cytiva), primed three times with a running buffer: HBS-P+, pH 7.4 (Cytiva), and equilibrated at a flow rate of 30 μL/min. Ligand immobilization was performed at a flow rate of 10 μL/min. 50 μL each of 60 mM EDC solution (Cytiva) and 650 mM NHS solution (Cytiva) were mixed, and then reacted at a flow rate of 10 μL/min for 420 seconds. 150 μL of 0.2 μM human Glypican3 (R&D systems, catalog number: 2119-GP) solution which was prepared by diluting with 10 mM acetic acid solution (pH 5.0), was reacted at a flow rate of 10 μL/min for 420 seconds, and Glypican3 was immobilized on the CM3 sensor chip. After immobilization, 1.0 M ethanolamine aqueous solution (Cytiva) was allowed to react for 420 seconds at a flow rate of 10 μL/min for capping. A peptide lysate prepared to 10 mM in DMSO solution was diluted with running buffer to a final concentration of 10 μM peptide lysate. After that, 5 serial dilution series (100 nM, 50 nM, 25 nM, 10 nM, 5 nM) of peptide solutions were prepared. Using the above samples, peptide kinetics for Glypican3 was obtained by SPR measurement. […]
The obtained data by Method B-1, Method B-2, Method B-3, and Method B-4 were analyzed by follow. […]

[5] = biological target: Human Glypican3-Fc (ACRO Biosystems, GP3-H5258) (human) (UniProt P51654); assay: SPR Biacore T200, Method B-3: Glypican3-Fc captured on Protein A chip, single cycle kinetics
[6] = biological target: T2, Human Glypican3-Fc (ACRO Biosystems, GP3-H5258) (human, UniProt P51654 25-559); assay: as above
T2 construct: Bought Fc fusion, captured by anti-human IgG (Fc) antibody (Method B-2) or on a Protein A chip (Methods B-3, B-4); Supplier and catalogue number are printed only in Method B-2; B-3 and B-4 say only Glypican3-Fc / human Glypican3-Fc; not shown: Fc part of the bought fusion protein
Method: as §1, §2

Human Glypican3-Fc (ACRO Biosystems, GP3-H5258) (human), sequence (P51654 25-559 limits assumed): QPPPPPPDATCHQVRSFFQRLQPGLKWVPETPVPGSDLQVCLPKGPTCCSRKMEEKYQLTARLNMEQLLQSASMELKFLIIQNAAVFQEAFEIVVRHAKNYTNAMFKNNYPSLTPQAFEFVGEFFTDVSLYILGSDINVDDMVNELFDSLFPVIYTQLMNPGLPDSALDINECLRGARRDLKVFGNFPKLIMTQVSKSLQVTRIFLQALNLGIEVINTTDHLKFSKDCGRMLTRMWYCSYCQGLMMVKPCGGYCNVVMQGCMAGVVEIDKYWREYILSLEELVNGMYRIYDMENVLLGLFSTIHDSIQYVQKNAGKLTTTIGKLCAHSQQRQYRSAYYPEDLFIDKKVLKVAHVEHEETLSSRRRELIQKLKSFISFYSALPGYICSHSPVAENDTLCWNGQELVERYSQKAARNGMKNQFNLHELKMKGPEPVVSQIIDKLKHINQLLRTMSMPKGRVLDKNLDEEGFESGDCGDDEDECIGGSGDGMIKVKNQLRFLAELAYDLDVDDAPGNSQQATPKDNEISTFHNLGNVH
T2 sequence (P51654 25-559 limits assumed): as above
T1 sequence (P51654 25-554): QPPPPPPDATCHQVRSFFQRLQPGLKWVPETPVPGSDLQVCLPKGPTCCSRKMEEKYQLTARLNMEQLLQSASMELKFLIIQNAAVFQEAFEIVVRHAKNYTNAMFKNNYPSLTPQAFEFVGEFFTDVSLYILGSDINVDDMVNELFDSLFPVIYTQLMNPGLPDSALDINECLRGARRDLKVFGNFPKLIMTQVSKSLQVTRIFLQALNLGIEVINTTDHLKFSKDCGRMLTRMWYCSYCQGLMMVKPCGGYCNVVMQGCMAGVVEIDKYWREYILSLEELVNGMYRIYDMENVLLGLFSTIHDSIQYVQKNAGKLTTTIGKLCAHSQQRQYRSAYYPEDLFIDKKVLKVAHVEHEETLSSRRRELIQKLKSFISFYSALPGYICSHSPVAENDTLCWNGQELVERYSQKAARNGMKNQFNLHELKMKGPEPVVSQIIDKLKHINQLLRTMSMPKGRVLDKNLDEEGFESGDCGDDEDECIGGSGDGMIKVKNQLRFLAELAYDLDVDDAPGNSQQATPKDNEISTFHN

Molecule: CC[N+]1=C(/C=C/C=C/C=C2/N(CCCCCC(=O)NCCCC[C@H](NC(=O)CCOCCOCCOCCOCCOCCOCCOCCOCCOCCOCCNC(=O)CNC(C)=O)C(N)=O)c3ccc(S(=O)(=O)O)cc3C2(C)C)C(C)(C)c2cc(S(=O)(=O)[O-])ccc21 [C-M-64, 2-[(1E,3E)-5-[(2E)-1-(5-{[(5)-5-carbamoyl-5-[1-(2-acetamidoacetamido)-3,6,9,12,15,18,21,24,27,30-decaoxatritriacontan-33-amido]pentyl]carbamoyl}pentyl)-3,3-dimethyl-5-sulfo-2,3-dihydro-1H-indol-2-ylidene]penta-1,3-dien-1-yl]-1-ethyl-3,3-dimethyl-3H-indol-1-ium-5-sulfonate, reference compound]
Kd [1]: < 1 nM

Molecule: CC[C@H](C)[C@@H]1NC(=O)[C@H](Cc2ccc(C(=O)O)cc2)NC(=O)[C@H](CCC(N)=O)N(C)C(=O)[C@H](CC(=O)O)NC(=O)[C@H]([C@@H](C)CC)N(C)C(=O)[C@H](CCCCNC(C)=O)N(C)C(=O)CSCC(C(=O)NCC(=O)NCCOCCOCCOCCOCCOCCOCCOCCOCCOCCOCCC(=O)N[C@@H](CCCCNC(=O)CCCC[C@@H]2SC[C@@H]3NC(=O)N[C@@H]32)C(N)=O)N(C)C(=O)[C@H](Cc2ccc(-c3ccccc3)nc2)NC(=O)CNC(=O)[C@H](Cc2ccc3ccncc3c2)N(C)C(=O)[C@H](Cc2ccc(O)cc2)NC(=O)[C@H]([C@@H](C)CC)NC1=O (some centres unmarked) [PLB-60] ({CH2CO}-[NMeK](Ac)[NMeI]D[NMeQ][Phe(4-COOH)]IIY[NMeAla(isoquinolin-7-yl)]G[3Pal(6-Ph)][ξNMeC]G[PEG10]K(Biotin)-NH2; thioether N-12)
comparative staining of Huh-7 by flow cytometry [2]: specific binding to both glypican expressing cells and SAPE
comparative staining of HepG2 by flow cytometry [3]: specific binding to both glypican expressing cells and SAPE

Molecule: CC[C@H](C)[C@@H]1NC(=O)[C@H]([C@@H](C)OC)NC(=O)[C@H](Cc2ccc(C(=O)O)cc2)NC(=O)[C@H](CCC(N)=O)N(C)C(=O)[C@H](CC(=O)O)NC(=O)[C@H](CCC(N)=O)N(C)C(=O)[C@H](CCC(N)=O)N(C)C(=O)CSC[C@@H](C(N)=O)N(C)C(=O)[C@H](Cc2ccc(-c3cnn(C)c3)cc2)NC(=O)CNC(=O)[C@H](Cc2ccc3ccccc3c2)N(C)C(=O)[C@H](Cc2ccc(C(=O)O)cc2)NC1=O [compound 18] ({CH2CO}-[NMeQ][NMeQ]D[NMeQ][Phe(4-COOH)]T(Me)I[Phe(4-COOH)][NMe2Nal]G[Phe(4-(1-Me-pyrazol-4-yl))][NMeC]-NH2; thioether N-12)
Kd [4]: 1.8 nM

Molecule: CC[C@H](C)[C@@H]1NC(=O)[C@H]([C@@H](C)OC)NC(=O)[C@H](Cc2ccc(C(=O)O)cc2)NC(=O)[C@H](CNC(=O)N2CCN(CC(=O)O)CC2)N(C)C(=O)[C@H](CC(=O)O)NC(=O)[C@H](CCOC)N(C)C(=O)[C@H](CCCCNC(=O)N2CCN(CC(=O)O)CC2)N(C)C(=O)CSC[C@@H](C(N)=O)N(C)C(=O)[C@H](Cc2ccc(-c3ccccc3)nc2)NC(=O)CNC(=O)[C@H](Cc2ccc3ccncc3c2)N(C)C(=O)[C@H](Cc2ccc(OCCN)cc2)NC1=O [compound 55]
Kd [1]: 1.8 nM

Molecule: {CH2CO}-[MeDapCOpipzaa][MeHseMe]D[MeDapCOpipzaa][Phe(4-COOH)][TMe]I[AEF][NMe2Nal]G[3Pal(6-Ph)][NMeC]-NH2 (thioether N-12) [macrocyclic peptide of SEQ ID NO: 50]
Kd [5]: 0.3 nM

Second part, the molecule after the results:

Kd [5]: 1 nM
Molecule: {CH2CO}-[MeDapCOpipzaa][MeHseMe]D[MeDapCOpipzaa][Phe(4-COOH)][TMe]I[AEF][NMeAla(isoquinolin-7-yl)]G[3Pal(6-Ph)][NMeC]-NH2 (thioether N-12) [macrocyclic peptide of SEQ ID NO: 54]

Kd [6]: 1.04 nM
Molecule: {CH2CO}-[NMeK](Biotin‑PEG12c)[NMeI]D[NMeQ][Phe(4-COOH)]II[F4aao][NMeAla(isoquinolin-7-yl)]G[3Pal(6-Ph)][NMeC]-NH2 (thioether N-12) [macrocyclic peptide-biotin conjugate PLB-64 (SEQ ID NO: 76)]
